Assay results published in patent publication EP1218024B1, “ASPARTAME DERIVATIVES FOR DECREASING BLOOD VISCOSITY” (Oklahoma Medical Research Foundation, priority 1999, dated 2001).
Where a SMILES comes first, the peptide text is derived from it.

What was measured:
whole blood viscosity [1] = experiment: Whole blood viscosity by RBC pipette method after in vitro addition of APM to patient blood samples; design: species or system patients; conditions: for viscosity of the blood samples compared to the control: samples at 480 minutes post-treatment, additional 1 or 2 milligrams/milliliter APM in vitro
Method: (§1) To measure viscosity, 1.01 cc of the test fluid, i.e., either water, saline or blood, was drawn into an RBC pipette using a 50 cc syringe attached via rubber tubing to the top of the RBC pipette. Using a constant pressure of 20 mm by maintaining the pressure with visual feedback and hand pressure, the amount of time it took for the test fluid to drip out of the RBC pipette was measured with a stopwatch. Each measurement was made in triplicate. Changes in viscosity from baseline for patient blood samples were recorded and compared to normal controls.
Samples with high viscosity readings at 480 minutes or 1,440 minutes post-treatment, chosen to represent patients with a validated response to APM who were returning to normal, were divided and treated with an additional 0, 1, or 2 milligrams/milliliter APM in vitro, in an effort to measure whether a second inducible sickling response was possible and if a second response to the in vitro APM addition could be observed. The viscosity of each sample at 480 minutes post-treatment was measured.

whole blood viscosity [2] = experiment: Whole blood viscosity by RBC pipette method, before and after oral APM administration to patients; format: in vivo
Method: Blood samples were obtained from ten patients having homozygous HgBss disease or heterozygous Hgbsc disease before and after a blinded administration of APM at 1.5 (low dose), 3 (medium dose), or 6 (high dose) milligrams per kilogram body weight. TABLE I: Patient Characteristics
Viscosity determinations using the RBC pipette method of Wright and Jenkins (1970, Blood 36:516) were made on each blinded whole blood sample before and 120 minutes after blinded administration of APM. Each measurement was made in triplicate. Control viscosity measurements using saline and water for each patient and normal whole blood were also made to validate the viscosity measurements.
as §1

[3] = tested on: red blood cells containing HbS; conditions: disclosed in WO 00/18418; cited from earlier work
[4] = clinical trial; unknown mechanism; cited from earlier work
sickle cells = experiment: Metabisulfite slide test to measure sickling in blood samples; format: cell-based, patients
[5] = all ten patients, baseline vs 120 minutes post-treatment, APM 1.5, 3 or 6 mg/kg body weight

Structure (SMILES): COC(=O)[C@H](Cc1ccccc1)NC(=O)[C@@H](N)CC(=O)O [APM, N-L-alpha-aspartyl-L-phenylalanine 1-methyl ester] (H-Asp-Phe-OMe)
- effect on Hgbsc blood (whole blood viscosity [1]; APM in vitro): not affected
- viscosity of the blood samples compared to the control (whole blood viscosity [1]; HgBss patients): decreased
- viscosity of the blood samples compared to the control (whole blood viscosity [1]; Hgbsc patients): increase
- viscosity of HgBss blood (whole blood viscosity [1]; addition of APM in vitro): reduces
- viscosity of HgBss blood (whole blood viscosity [2]; APM given orally): reduces
- effect on Hgbsc blood (whole blood viscosity [2]; APM in vivo): not affected
- No. of Patients, Viscosity change decreasing, HgBss (whole blood viscosity [2]; HgBss patients, baseline vs 120 minutes post-treatment): 5
- No. of Patients, Viscosity change increasing, Hgbsc (whole blood viscosity [2]; Hgbsc patients, baseline vs 120 minutes post-treatment): 3
- No. of Patients, Viscosity change decreasing (whole blood viscosity [2]; [5]): 7
- No. of Patients, Viscosity change increasing (whole blood viscosity [2]; [5]): 3
- viscosity compared against Pirofsky's change in viscosity vs. hematocrit standard (whole blood viscosity [2]; blood samples from patients with sickle cell disease (HgBss)): decreased
- viscosity compared against Pirofsky's change in viscosity vs. hematocrit standard (whole blood viscosity [2]; blood samples from patients with sickle cell trait (Hbgsc)): increased
- blood viscosity after treatment over time (whole blood viscosity [2]; five patients identified as HgBss, baseline vs 120 minutes post-treatment): decreased
- No. of Patients, Viscosity change decreasing, sbthal (whole blood viscosity [2]; sbthal patients, baseline vs 120 minutes post-treatment): 2
- viscosity after treatment over time (whole blood viscosity [2]; three patients diagnosed as Hgbsc, baseline vs 120 minutes post-treatment): increased
- blood viscosity after treatment over time (whole blood viscosity [2]; two patients diagnosed as sbthal, baseline vs 120 minutes post-treatment): decreased
- capacity of red blood cells containing HbS to sickle with hypoxemia [3]: reduction
- pain and inflammation of osteo- and mixed osteo- and rheumatoid arthritis [4]: alleviate
- number of sickle cells in HgBss blood (sickle cells; APM given orally): reduces
- number of sickle cells in HgBss blood (sickle cells; addition of APM in vitro): reduces
